Experimental data taken from PubChem BioAssay AID1259407 (Chemical Carcinogenesis Research Information System (CCRIS), 2018).
The source made the active and inactive calls. No rule for the calls is given here.

Tested on: CCRIS mutagenicity, Ames/micronucleus/aberration tests
Experiment: CCRIS mutagenicity studies

With `CC1(C)COC1=O` the mutagenic call (Test System: AMES SALMONELLA TYPHIMURIUM, Strain/Indicator: TA98, Metabolic Activation: HAMSTER, LIVER, S-9, AROCLOR 1254, Method: PREINCUBATION) was “inactive; negative”, the mutagenic call (Test System: AMES SALMONELLA TYPHIMURIUM, Strain/Indicator: TA98, Metabolic Activation: HAMSTER, LIVER, S-9, AROCLOR 1254, Method: STANDARD PLATE) was “inactive; negative” and the mutagenic call (Test System: AMES SALMONELLA TYPHIMURIUM, Strain/Indicator: TA98, Metabolic Activation: HAMSTER, LIVER, S-9, Method: PREINCUBATION) was “inactive; negative”. The mutagenic call (Test System: AMES SALMONELLA TYPHIMURIUM, Strain/Indicator: TA98, Metabolic Activation: HAMSTER, LIVER, S-9, Method: STANDARD PLATE) was “inactive; negative”, the mutagenic call (Test System: AMES SALMONELLA TYPHIMURIUM, Strain/Indicator: TA98, Metabolic Activation: MOUSE, LIVER, S-9, AROCLOR 1254, Method: PREINCUBATION) was “inactive; negative” and the mutagenic call (Test System: AMES SALMONELLA TYPHIMURIUM, Strain/Indicator: TA98, Metabolic Activation: MOUSE, LIVER, S-9, AROCLOR 1254, Method: STANDARD PLATE) was “inactive; negative”. For the same compound, the mutagenic call (Test System: AMES SALMONELLA TYPHIMURIUM, Strain/Indicator: TA98, Metabolic Activation: MOUSE, LIVER, S-9, Method: PREINCUBATION) was “inactive; negative”, the mutagenic call (Test System: AMES SALMONELLA TYPHIMURIUM, Strain/Indicator: TA98, Metabolic Activation: MOUSE, LIVER, S-9, Method: STANDARD PLATE) was “inactive; negative” and the mutagenic call (Test System: AMES SALMONELLA TYPHIMURIUM, Strain/Indicator: TA98, Metabolic Activation: NONE, Method: PREINCUBATION) was “inactive; negative”. The mutagenic call (Test System: AMES SALMONELLA TYPHIMURIUM, Strain/Indicator: TA98, Metabolic Activation: NONE, Method: STANDARD PLATE) was “inactive; negative”, the mutagenic call (Test System: AMES SALMONELLA TYPHIMURIUM, Strain/Indicator: TA98, Metabolic Activation: RAT, LIVER, S-9, AROCLOR 1254, Method: PREINCUBATION) was “inactive; negative” and the mutagenic call (Test System: AMES SALMONELLA TYPHIMURIUM, Strain/Indicator: TA98, Metabolic Activation: RAT, LIVER, S-9, AROCLOR 1254, Method: STANDARD PLATE) was “inactive; negative”. The mutagenic call (Test System: AMES SALMONELLA TYPHIMURIUM, Strain/Indicator: TA98, Metabolic Activation: RAT, LIVER, S-9, Method: PREINCUBATION) was “inactive; negative”, the mutagenic call (Test System: AMES SALMONELLA TYPHIMURIUM, Strain/Indicator: TA98, Metabolic Activation: RAT, LIVER, S-9, Method: STANDARD PLATE) was “inactive; negative” and the mutagenic call (Test System: AMES SALMONELLA TYPHIMURIUM, Strain/Indicator: TA100, Metabolic Activation: HAMSTER, LIVER, S-9, AROCLOR 1254, Method: STANDARD PLATE) was “active; positive”. The mutagenic call (Test System: AMES SALMONELLA TYPHIMURIUM, Strain/Indicator: TA100, Metabolic Activation: HAMSTER, LIVER, S-9, Method: STANDARD PLATE) was “active; positive”, the mutagenic call (Test System: AMES SALMONELLA TYPHIMURIUM, Strain/Indicator: TA100, Metabolic Activation: MOUSE, LIVER, S-9, AROCLOR 1254, Method: STANDARD PLATE) was “active; positive” and the mutagenic call (Test System: AMES SALMONELLA TYPHIMURIUM, Strain/Indicator: TA100, Metabolic Activation: MOUSE, LIVER, S-9, Method: STANDARD PLATE) was “active; positive”. The mutagenic call (Test System: AMES SALMONELLA TYPHIMURIUM, Strain/Indicator: TA100, Metabolic Activation: NONE, Method: STANDARD PLATE) was “active; positive”, the mutagenic call (Test System: AMES SALMONELLA TYPHIMURIUM, Strain/Indicator: TA100, Metabolic Activation: RAT, LIVER, S-9, AROCLOR 1254, Method: STANDARD PLATE) was “active; positive” and the mutagenic call (Test System: AMES SALMONELLA TYPHIMURIUM, Strain/Indicator: TA100, Metabolic Activation: RAT, LIVER, S-9, Method: STANDARD PLATE) was “active; positive”. For the same compound, the mutagenic call (Test System: AMES SALMONELLA TYPHIMURIUM, Strain/Indicator: TA1535, Metabolic Activation: HAMSTER, LIVER, S-9, AROCLOR 1254, Method: PREINCUBATION) was “inactive; negative”, the mutagenic call (Test System: AMES SALMONELLA TYPHIMURIUM, Strain/Indicator: TA1535, Metabolic Activation: HAMSTER, LIVER, S-9, Method: PREINCUBATION) was “inactive; negative” and the mutagenic call (Test System: AMES SALMONELLA TYPHIMURIUM, Strain/Indicator: TA1535, Metabolic Activation: MOUSE, LIVER, S-9, AROCLOR 1254, Method: PREINCUBATION) was “inactive; negative”. For the same compound, the mutagenic call (Test System: AMES SALMONELLA TYPHIMURIUM, Strain/Indicator: TA1535, Metabolic Activation: MOUSE, LIVER, S-9, Method: PREINCUBATION) was “inactive; negative”, the mutagenic call (Test System: AMES SALMONELLA TYPHIMURIUM, Strain/Indicator: TA1535, Metabolic Activation: NONE, Method: PREINCUBATION) was “inactive; negative” and the mutagenic call (Test System: AMES SALMONELLA TYPHIMURIUM, Strain/Indicator: TA1535, Metabolic Activation: RAT, LIVER, S-9, AROCLOR 1254, Method: PREINCUBATION) was “inactive; negative”. The mutagenic call (Test System: AMES SALMONELLA TYPHIMURIUM, Strain/Indicator: TA1535, Metabolic Activation: RAT, LIVER, S-9, Method: PREINCUBATION) was “inactive; negative”, the mutagenic call (Test System: AMES SALMONELLA TYPHIMURIUM, Strain/Indicator: TA1537, Metabolic Activation: HAMSTER, LIVER, S-9, AROCLOR 1254, Method: PREINCUBATION) was “inactive; negative” and the mutagenic call (Test System: AMES SALMONELLA TYPHIMURIUM, Strain/Indicator: TA1537, Metabolic Activation: HAMSTER, LIVER, S-9, AROCLOR 1254, Method: STANDARD PLATE) was “inactive; negative”. For the same compound, the mutagenic call (Test System: AMES SALMONELLA TYPHIMURIUM, Strain/Indicator: TA1537, Metabolic Activation: HAMSTER, LIVER, S-9, Method: PREINCUBATION) was “inactive; negative”, the mutagenic call (Test System: AMES SALMONELLA TYPHIMURIUM, Strain/Indicator: TA1537, Metabolic Activation: HAMSTER, LIVER, S-9, Method: STANDARD PLATE) was “inactive; negative” and the mutagenic call (Test System: AMES SALMONELLA TYPHIMURIUM, Strain/Indicator: TA1537, Metabolic Activation: MOUSE, LIVER, S-9, AROCLOR 1254, Method: PREINCUBATION) was “inactive; negative”. The mutagenic call (Test System: AMES SALMONELLA TYPHIMURIUM, Strain/Indicator: TA1537, Metabolic Activation: MOUSE, LIVER, S-9, AROCLOR 1254, Method: STANDARD PLATE) was “inactive; negative”, the mutagenic call (Test System: AMES SALMONELLA TYPHIMURIUM, Strain/Indicator: TA1537, Metabolic Activation: MOUSE, LIVER, S-9, Method: PREINCUBATION) was “inactive; negative” and the mutagenic call (Test System: AMES SALMONELLA TYPHIMURIUM, Strain/Indicator: TA1537, Metabolic Activation: MOUSE, LIVER, S-9, Method: STANDARD PLATE) was “inactive; negative”. For the same compound, the mutagenic call (Test System: AMES SALMONELLA TYPHIMURIUM, Strain/Indicator: TA1537, Metabolic Activation: NONE, Method: PREINCUBATION) was “inactive; negative”, the mutagenic call (Test System: AMES SALMONELLA TYPHIMURIUM, Strain/Indicator: TA1537, Metabolic Activation: NONE, Method: STANDARD PLATE) was “inactive; negative” and the mutagenic call (Test System: AMES SALMONELLA TYPHIMURIUM, Strain/Indicator: TA1537, Metabolic Activation: RAT, LIVER, S-9, AROCLOR 1254, Method: PREINCUBATION) was “inactive; negative”. For the same compound, the mutagenic call (Test System: AMES SALMONELLA TYPHIMURIUM, Strain/Indicator: TA1537, Metabolic Activation: RAT, LIVER, S-9, AROCLOR 1254, Method: STANDARD PLATE) was “inactive; negative”, the mutagenic call (Test System: AMES SALMONELLA TYPHIMURIUM, Strain/Indicator: TA1537, Metabolic Activation: RAT, LIVER, S-9, Method: PREINCUBATION) was “inactive; negative” and the mutagenic call (Test System: AMES SALMONELLA TYPHIMURIUM, Strain/Indicator: TA1537, Metabolic Activation: RAT, LIVER, S-9, Method: STANDARD PLATE) was “inactive; negative”. For the same compound, the mutagenic call (Test System: AMES SALMONELLA TYPHIMURIUM, Strain/Indicator: TA1538, Metabolic Activation: HAMSTER, LIVER, S-9, AROCLOR 1254, Method: PREINCUBATION) was “inactive; negative”, the mutagenic call (Test System: AMES SALMONELLA TYPHIMURIUM, Strain/Indicator: TA1538, Metabolic Activation: HAMSTER, LIVER, S-9, AROCLOR 1254, Method: STANDARD PLATE) was “inactive; negative” and the mutagenic call (Test System: AMES SALMONELLA TYPHIMURIUM, Strain/Indicator: TA1538, Metabolic Activation: HAMSTER, LIVER, S-9, Method: PREINCUBATION) was “inactive; negative”. For the same compound, the mutagenic call (Test System: AMES SALMONELLA TYPHIMURIUM, Strain/Indicator: TA1538, Metabolic Activation: HAMSTER, LIVER, S-9, Method: STANDARD PLATE) was “inactive; negative”, the mutagenic call (Test System: AMES SALMONELLA TYPHIMURIUM, Strain/Indicator: TA1538, Metabolic Activation: MOUSE, LIVER, S-9, AROCLOR 1254, Method: PREINCUBATION) was “inactive; negative” and the mutagenic call (Test System: AMES SALMONELLA TYPHIMURIUM, Strain/Indicator: TA1538, Metabolic Activation: MOUSE, LIVER, S-9, AROCLOR 1254, Method: STANDARD PLATE) was “inactive; negative”. The mutagenic call (Test System: AMES SALMONELLA TYPHIMURIUM, Strain/Indicator: TA1538, Metabolic Activation: MOUSE, LIVER, S-9, Method: PREINCUBATION) was “inactive; negative”, the mutagenic call (Test System: AMES SALMONELLA TYPHIMURIUM, Strain/Indicator: TA1538, Metabolic Activation: MOUSE, LIVER, S-9, Method: STANDARD PLATE) was “inactive; negative” and the mutagenic call (Test System: AMES SALMONELLA TYPHIMURIUM, Strain/Indicator: TA1538, Metabolic Activation: NONE, Method: PREINCUBATION) was “inactive; negative”. The mutagenic call (Test System: AMES SALMONELLA TYPHIMURIUM, Strain/Indicator: TA1538, Metabolic Activation: NONE, Method: STANDARD PLATE) was “inactive; negative”, the mutagenic call (Test System: AMES SALMONELLA TYPHIMURIUM, Strain/Indicator: TA1538, Metabolic Activation: RAT, LIVER, S-9, AROCLOR 1254, Method: PREINCUBATION) was “inactive; negative” and the mutagenic call (Test System: AMES SALMONELLA TYPHIMURIUM, Strain/Indicator: TA1538, Metabolic Activation: RAT, LIVER, S-9, AROCLOR 1254, Method: STANDARD PLATE) was “inactive; negative”. The mutagenic call (Test System: AMES SALMONELLA TYPHIMURIUM, Strain/Indicator: TA1538, Metabolic Activation: RAT, LIVER, S-9, Method: PREINCUBATION) was “inactive; negative”, the mutagenic call (Test System: AMES SALMONELLA TYPHIMURIUM, Strain/Indicator: TA1538, Metabolic Activation: RAT, LIVER, S-9, Method: STANDARD PLATE) was “inactive; negative” and the mutagenic call (Test System: E. COLI, Strain/Indicator: WP2 UVRA, Metabolic Activation: HAMSTER, LIVER, S-9, AROCLOR 1254, Method: PREINCUBATION) was “active; positive”. The mutagenic call (Test System: E. COLI, Strain/Indicator: WP2 UVRA, Metabolic Activation: HAMSTER, LIVER, S-9, Method: PREINCUBATION) was “active; positive”, the mutagenic call (Test System: E. COLI, Strain/Indicator: WP2 UVRA, Metabolic Activation: MOUSE, LIVER, S-9, AROCLOR 1254, Method: PREINCUBATION) was “active; positive” and the mutagenic call (Test System: E. COLI, Strain/Indicator: WP2 UVRA, Metabolic Activation: NONE, Method: PREINCUBATION) was “active; positive”. The mutagenic call (Test System: E. COLI, Strain/Indicator: WP2 UVRA, Metabolic Activation: RAT, LIVER, S-9, AROCLOR 1254, Method: PREINCUBATION) was “active; positive” and the mutagenic call (Test System: E. COLI, Strain/Indicator: WP2 UVRA, Metabolic Activation: RAT, LIVER, S-9, Method: PREINCUBATION) was “active; positive”.
